This assay addresses T1, Full-length glucokinase (beta cell isoform) (Homo sapiens, UniProt P35557).
T1 construct: Full-length glucokinase (beta cell isoform) was His-tagged at N-terminus; His tag (N); made in house
T1 sequence (P35557 1-465): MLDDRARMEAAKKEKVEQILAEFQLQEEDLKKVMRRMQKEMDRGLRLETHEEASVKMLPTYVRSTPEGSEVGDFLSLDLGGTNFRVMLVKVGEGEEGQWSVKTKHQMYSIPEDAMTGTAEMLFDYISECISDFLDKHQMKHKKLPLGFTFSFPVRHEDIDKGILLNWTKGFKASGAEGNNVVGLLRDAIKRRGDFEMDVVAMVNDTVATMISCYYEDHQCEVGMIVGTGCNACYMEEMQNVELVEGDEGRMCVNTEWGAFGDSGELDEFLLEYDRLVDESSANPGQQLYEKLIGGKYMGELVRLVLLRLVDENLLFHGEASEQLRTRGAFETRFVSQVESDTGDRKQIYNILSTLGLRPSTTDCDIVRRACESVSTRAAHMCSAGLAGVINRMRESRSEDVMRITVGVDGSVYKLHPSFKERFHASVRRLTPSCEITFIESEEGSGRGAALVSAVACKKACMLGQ
The assay is described as follows: Glucokinase biochemical assay (PK/LDH-coupled, NADH depletion at 340 nm): % activation, EC50, % max activation. Particulars: 5 mM glucose; for EC50: read-out: EC50; for % Max Activation / Emax: fitted maximum activation; for activation at 10 µM: read-out: % Activation at 10 uM; for Emax: read-out: % Max Activation. The essentials: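 N-terminally His-tagged full-length human beta-cell glucokinase, room temperature, 5 mM glucose, 1 mM ATP, PK/LDH-coupled with 0.7 mM NADH, 1% DMSO final. Initial velocity from the 200–900 s slope of A340 decline. % activation = (Va/Vo−1)×100, measured across compound concentrations.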

Setting [1] is: 10 uM compound, % Activation=(Va/Vo−1)×100.

One may read the EC50 as the concentration needed to bring the measured effect to its halfway point.

Where two headings read alike, the source gives them in different places. Where only a bound is given, the exact number is not on record here.

For `COCC1(C)Cc2c(Oc3ccc(C(=O)N4CCC4)c(F)c3)cc(C(=O)Nc3ccn(C)n3)cc2O1` (single isomer, unassigned; (+)) [Example 244, (+)-4-[4-(Azetidine-1-carbonyl)-3-fluoro-phenoxy]-2-methoxymethyl-2-methyl-2,3-dihydro-benzofuran-6-carboxylic acid (1-methyl-1H-pyrazol-3-yl)-amide], the “% Max Activation” value amounted to 234%. Besides, under setting [1], the “% Activation at 10 uM” value is listed as 287%. Besides, the EC50 (GK activation) came out at 210 nM.
For `CCOc1ccc(NC(=O)c2cc(Oc3ccc(S(=O)(=O)N4CCC4)cc3)c3cc(C)oc3c2)nc1` [Example 302, 4-(4-(Azetidin-1-ylsulfonyl)phenoxy)-N-(5-ethoxypyridin-2-yl)-2-methyl-benzofuran-6-carboxamide], the Emax stood at 110%. In addition, the activation at 10 µM under setting [1] amounted to 123%. Further, the EC50 (GK activation) was 1300 nM.
`CC1Cc2c(Oc3ccc(S(C)(=O)=O)cc3)cc(C(=O)Nc3ccn(C)n3)cc2O1` (single isomer, unassigned; (+)) [Example 13, (+)4-(4-Methanesulfonyl-phenoxy)-2-methyl-2,3-dihydro-benzofuran-6-carboxylic acid(1-methyl-1H-pyrazol-3-yl)-amide]: the “% Max Activation” value came out at 196%. For the same compound, the “% Activation at 10 uM” value under setting [1] is recorded as 182%. Under “GK activation”, the EC50 stood at 1800 nM.
With `COCC1(C)Cc2c(Oc3ccc(S(C)(=O)=O)cc3)cc(C(=O)Nc3ccc(C)cn3)cc2O1` (centres unmarked) [Example 231, 4-(4-Methanesulfonyl-phenoxy)-2-methoxymethyl-2-methyl-2,3-dihydro-benzofuran-6-carboxylic acid (5-methyl-pyridin-2-yl)-amide], the Emax amounted to 106%. Besides, the activation at 10 µM under setting [1] stood at 118%. Also, the EC50 (GK activation) stood at 100 nM.
On to `Cn1ccc(NC(=O)c2cc(Oc3ccc(S(C)(=O)=O)cc3)c3ccoc3c2)n1` [Example 343], for which the activation at 10 µM under setting [1] came out at 82.5%. Moreover, the EC50 (GK activation) is more than 10000 nM.
Regarding `Cc1nnc(NC(=O)c2cc(Oc3ccc(S(C)(=O)=O)cc3)c3c(c2)OC(C)(C)C3)s1` [Example 24, 4-(4-Methanesulfonyl-phenoxy)-2,2-dimethyl-2,3-dihydro-benzofuran-6-carboxylic acid(5-methyl-[1,3,4]thiadiazol-2-yl)-amide], the Emax is 140%. In addition, the activation at 10 µM under setting [1] came to 121%. Further, the EC50 (GK activation) was determined as 1490 nM.
Take `CC1(C)Cc2c(Oc3ccc(S(C)(=O)=O)cc3)cc(C(=O)Nc3ccc(C(N)=O)cn3)cc2O1` [Example 15, 6-{[4-(4-Methanesulfonyl-phenoxy)-2,2-dimethyl-2,3-dihydro-benzofuran-6-carbonyl]-amino}-nicotinamide]: the activation at 10 µM under setting [1] came out at 4.3%.
As for `Cn1ccc(NC(=O)c2cc(Oc3ccc(S(C)(=O)=O)cc3)c3c(c2)C(=O)N(C2CC2)C3)n1` [Example 386, 2-Cyclopropyl-N-(1-methyl-1H-pyrazol-3-yl)-7-(4-(methylsulfonyl)-phenoxy)-3-oxoisoindoline-5-carboxamide], where the note is “1 mM ATP, room temperature”, the 50% effective concentration (EC50) is more than 10000 nM. For the same compound, the activation at 10 µM (compound at 10 uM, 1 mM ATP, room temperature) was determined as 78.8%.
Consider `COCCNC(=O)c1ccc(Oc2cc(C(=O)Nc3ccn(C)n3)cc3c2CC(C)(C)O3)cc1F` [Example 68, 4-[3-Fluoro-4-(2-methoxy-ethylcarbamoyl)-phenoxy]-2,2-dimethyl-2,3-dihydro-benzofuran-6-carboxylic acid(1-methyl-1H-pyrazol-3-yl)-amide], for which the Emax stood at 175%. Moreover, the activation at 10 µM under setting [1] is 146%. The EC50 (GK activation) is 660 nM.
As for `Cn1ccc(NC(=O)c2cc(OCc3ccccc3)c3c(c2)OC(C(F)F)C3)n1` (centres unmarked) [Example 222, 4-Benzyloxy-2-difluoromethyl-2,3-dihydro-benzofuran-6-carboxylic acid (1-methyl-1H-pyrazol-3-yl)-amide], the activation at 10 µM under setting [1] is 61.1%. For the same compound, for the setting “GK activation”, the EC50 is more than 10000 nM.
On to `Cn1ccc(NC(=O)c2cc(Oc3cc(F)c(C(=O)N4CCC4)c(F)c3)c3c(c2)OC(C(F)F)C3)n1` (centres unmarked) [Example 223, 4-[4-(Azetidine-1-carbonyl)-3,5-difluoro-phenoxy]-2-difluoromethyl-2,3-dihydro-benzofuran-6-carboxylic acid (1-methyl-1H-pyrazol-3-yl)-amide], for which the Emax came out at 127%. Moreover, the activation at 10 µM under setting [1] amounted to 112%. In addition, the EC50 (GK activation) was found to be 680 nM.
`Cn1ccc(NC(=O)c2cc(Oc3ccc(C(=O)N4CCCCC4)c(F)c3)c3c(c2)OC(C)(C)C3)n1` [Example 61, 4-[3-Fluoro-4-(piperidine-1-carbonyl)-phenoxy]-2,2-dimethyl-2,3-dihydro-benzofuran-6-carboxylic acid(1-methyl-1H-pyrazol-3-yl)-amide]: the Emax came out at 107%. In addition, the activation at 10 µM under setting [1] came out at 109%. In addition, the EC50 (GK activation) was 100 nM.
For `Cc1cc(NC(=O)c2cc(Oc3ccc(C(=O)N(C)C)c(F)c3)c3c(c2)OC(C)(C)C3)no1` [Example 143, 4-(4-Dimethylcarbamoyl-3-fluoro-phenoxy)-2,2-dimethyl-2,3-dihydro-benzofuran-6-carboxylic acid (5-methyl-isoxazol-3-yl)-amide], the Emax is 50%. For the same compound, under setting [1], the activation at 10 µM stood at 47.8%. Besides, under “GK activation”, the EC50 was found to be 179 nM.
Turning to `CNC(=O)c1ncc(Oc2cc(C(=O)Nc3ccn(C)n3)cc3c2CC(C)(C)O3)cc1F` [Example 176, 5-[2,2-Dimethyl-6-(1-methyl-1H-pyrazol-3-ylcarbamoyl)-2,3-dihydro-benzofuran-4-yloxy]-3-fluoro-pyridine-2-carboxylic acid methylamide], the Emax stood at 203%. Also, the activation at 10 µM under setting [1] is 194%. Moreover, the EC50 (GK activation) is 450 nM.
Turning to `CC(C)NC(=O)c1ccc(Oc2cc(C(=O)Nc3ccn(C)n3)cc3c2CC(C)(C)O3)cc1F` [Example 71, 4-(3-Fluoro-4-isopropylcarbamoyl-phenoxy)-2,2-dimethyl-2,3-dihydro-benzofuran-6-carboxylic acid(1-methyl-1H-pyrazol-3-yl)-amide], the Emax came to 167%. Besides, the activation at 10 µM under setting [1] amounted to 181%. Moreover, the EC50 (GK activation) was 410 nM.
Consider `C=C(C)c1cc2c(C(=O)Nc3ccc(C)cn3)cc(OC(C)C)cc2o1` [Example 346, 6-Isopropoxy-N-(5-methylpyridin-2-yl)-2-(prop-1-en-2-yl)benzofuran-4-carboxamide], for which the Emax came to 89%. Moreover, the activation at 10 µM under setting [1] worked out at 69.2%. Further, for the setting “GK activation”, the EC50 came to 1500 nM.
For `Cc1ccc(NC(=O)c2cc(Oc3ccc(S(C)(=O)=O)cc3)c3ccsc3c2)nc1` [Example 355, 4-(4-Methanesulfonyl-phenoxy)-benzo[b]thiophene-6-carboxylic acid(5-methyl-pyridin-2-yl)-amide] the same measures were 110%, 114% and 520 nM.
Consider `CC(C)Oc1cc(C(=O)Nc2ccn(C)n2)cc2c1CC(CNC1CC1)O2` (centres unmarked) [Example 219, 2-Cyclopropylaminomethyl-4-isopropoxy-2,3-dihydro-benzofuran-6-carboxylic acid (1-methyl-1H-pyrazol-3-yl)-amide], for which the activation at 10 µM under setting [1] is 8%.
For `COc1cnc(NC(=O)c2cc(Oc3ccc(S(C)(=O)=O)cc3)c3cc(C(=O)N(C)C)oc3c2)cn1` [Example 287, N6-(5-Methoxypyrazin-2-yl)-N2,N2-dimethyl-4-[4-(methylsulfonyl)phenoxy]-1-benzofuran-2,6-dicarboxamide], the Emax stood at 169%. Moreover, the activation at 10 µM under setting [1] came to 80.3%. Where the note is “GK activation”, the EC50 came to 562 nM.
The matching figures for `CN(C)S(=O)(=O)c1cc(F)c(Oc2cc(C(=O)Nc3cnn(C)n3)cc3c2CC(C)(C)O3)cc1F` [Example 138, 4-(4-Dimethylsulfamoyl-2,5-difluoro-phenoxy)-2,2-dimethyl-2,3-dihydro-benzofuran-6-carboxylic acid (2-methyl-2H-[1,2,3]triazol-4-yl)-amide]: 224%, 218% and 340 nM.
Take `Cn1ccc(NC(=O)c2cc(Oc3ccc(C(=O)N4CC[C@H](O)C4)c(F)c3)c3c(c2)OC(C)(C)C3)n1` [Example 62, 4-[3-Fluoro-4-((S)-3-hydroxy-pyrrolidine-1-carbonyl)-phenoxy]-2,2-dimethyl-2,3-dihydro-benzofuran-6-carboxylic acid(1-methyl-1H-pyrazol-3-yl)-amide]: the Emax worked out at 165%. Under setting [1], the activation at 10 µM was determined as 153%. Moreover, the EC50 (GK activation) was determined as 700 nM.
As to `CN1CCN(C(=O)c2ccc(Oc3cc(C(=O)Nc4ccn(C)n4)cc4c3CC(C)(C)O4)cc2F)CC1` [Example 53, 4-[3-Fluoro-4-(4-methyl-piperazine-1-carbonyl)-phenoxy]-2,2-dimethyl-2,3-dihydro-benzofuran-6-carboxylic acid(1-methyl-1H-pyrazol-3-yl)-amide], the Emax is 135%. Further, the activation at 10 µM under setting [1] is 125%. Further, the EC50 (GK activation) was found to be 650 nM.

Source of the values: patent US8119624B2, “Fused phenyl amido heterocyclic compounds” (Pfizer Inc., priority 2006, dated 2012).
